From patent publication US8329422B2, “Analysis of circulating tumor cells, fragments, and debris” (Veridex LLC, priority 2001, dated 2012)

How the values were obtained:
Format in all cases: cell-based
LnCaP cells [1] = assay: CELLSPOTTER analysis of paclitaxel treated LnCaP cells spiked into blood of healthy donors (model to mimic tumor cell death); details: immunomagnetically selected
Experimental: (§1) To investigate the effect of apoptosis induced by cytotoxic agents on flow cytometric and CELLSPOTTER® analysis of CTC, cells from the prostate cell line LnCaP were cultured in the presence or absence of 40 nM paclitaxel for 72 hours. […] The treated and untreated LnCaP cells were spiked into blood of healthy donors, selected by the ferrofluid methods described above, and analyzed by the CELLSPOTTER® system.

LnCaP cells [2] = assay: M30 Cytodeath antibody staining of caspase-cleaved cytokeratin 18; details: paclitaxel treated LnCaP cells
Experimental: Cells of the prostate cell line LnCaP were cultured with or without paclitaxel and spiked into blood of healthy donors.

[3] = Viability of LnCaP cells by trypan blue exclusion after culture with paclitaxel; details: human, LnCaP prostate cell line; LnCaP cells cultured with 40 nM paclitaxel for 72 hours
Experimental: as §1

In the case of CC(=O)O[C@H]1C(=O)[C@@]2(C)[C@H]([C@H](OC(=O)c3ccccc3)[C@]3(O)C[C@H](OC(=O)[C@H](O)[C@@H](NC(=O)c4ccccc4)c4ccccc4)C(C)=C1C3(C)C)[C@]1(OC(C)=O)CO[C@@H]1C[C@@H]2O [paclitaxel], the “signs of apoptosis (morphology, punctate cytokeratin staining)” value (LnCaP cells [1]) is reported as “displayed signs of apoptosis”, the “staining with M30 Cytodeath antibody (early apoptosis)” value (LnCaP cells [2]) is reported as “stained with M30” and the viability at 72 h, 40 nM [3] is reported as 33%.
